Assay results taken from ChEMBL document CHEMBL5036314, “Structure-Guided Design of the First Noncovalent Small-Molecule Inhibitor of CRM1” (J Med Chem, 2021).
One block for each compound: values may come before it. Activity calls are given as the source filed them. No cut-off for these calls is given here.

Assays:
SW48 = assay: Anti-cancer activity against human SW48 cells assessed as cell survival at 10 uM for 72 hrs replaced with compound containing fresh culture medium every 12 hrs by Sulforhodamine B assay; format: functional, cell-based
HeLa [1] = assay: Binding affinity to human CRM1 C528S mutant transfected HeLa cells assessed as inhibition of nuclear export of cargoes at 2 uM incubated for 12 hrs by confocal microscope analysis; format: cell-based
HeLa [2] = assay: Cytotoxicity against human HeLa cells transfected with hCRM1-C528S-mutant assessed as cell viability measured for 72 hrs replaced with compound containing fresh culture medium every 12 hrs by Sulforhodamine B assay; format: functional, cell-based
HepG2 = assay: Anti-cancer activity against human HepG2 cells assessed as cell survival at 10 uM for 72 hrs replaced with compound containing fresh culture medium every 12 hrs by Sulforhodamine B assay; format: functional, cell-based
MGC-803 = assay: Anti-cancer activity against human MGC-803 cells assessed as cell survival at 10 uM for 72 hrs replaced with compound containing fresh culture medium every 12 hrs by Sulforhodamine B assay; format: functional, cell-based
A2780 = assay: Anti-cancer activity against human A2780 cells assessed as cell survival at 10 uM for 72 hrs replaced with compound containing fresh culture medium every 12 hrs by Sulforhodamine B assay; format: functional, cell-based
A549 = assay: Anti-cancer activity against human A549 cells assessed as cell survival at 10 uM for 72 hrs replaced with compound containing fresh culture medium every 12 hrs by Sulforhodamine B assay; format: functional, cell-based
Exportin-1 = Exportin-1 (Homo sapiens, UniProt O14980); assay: Binding affinity to wild type human CRM1 transfected HeLa cells assessed as inhibition of nuclear export of cargoes at 2 uM incubated for 12 hrs by confocal microscope analysis; format: cell-based
Chain of Exportin-1 (O14980 whole entry): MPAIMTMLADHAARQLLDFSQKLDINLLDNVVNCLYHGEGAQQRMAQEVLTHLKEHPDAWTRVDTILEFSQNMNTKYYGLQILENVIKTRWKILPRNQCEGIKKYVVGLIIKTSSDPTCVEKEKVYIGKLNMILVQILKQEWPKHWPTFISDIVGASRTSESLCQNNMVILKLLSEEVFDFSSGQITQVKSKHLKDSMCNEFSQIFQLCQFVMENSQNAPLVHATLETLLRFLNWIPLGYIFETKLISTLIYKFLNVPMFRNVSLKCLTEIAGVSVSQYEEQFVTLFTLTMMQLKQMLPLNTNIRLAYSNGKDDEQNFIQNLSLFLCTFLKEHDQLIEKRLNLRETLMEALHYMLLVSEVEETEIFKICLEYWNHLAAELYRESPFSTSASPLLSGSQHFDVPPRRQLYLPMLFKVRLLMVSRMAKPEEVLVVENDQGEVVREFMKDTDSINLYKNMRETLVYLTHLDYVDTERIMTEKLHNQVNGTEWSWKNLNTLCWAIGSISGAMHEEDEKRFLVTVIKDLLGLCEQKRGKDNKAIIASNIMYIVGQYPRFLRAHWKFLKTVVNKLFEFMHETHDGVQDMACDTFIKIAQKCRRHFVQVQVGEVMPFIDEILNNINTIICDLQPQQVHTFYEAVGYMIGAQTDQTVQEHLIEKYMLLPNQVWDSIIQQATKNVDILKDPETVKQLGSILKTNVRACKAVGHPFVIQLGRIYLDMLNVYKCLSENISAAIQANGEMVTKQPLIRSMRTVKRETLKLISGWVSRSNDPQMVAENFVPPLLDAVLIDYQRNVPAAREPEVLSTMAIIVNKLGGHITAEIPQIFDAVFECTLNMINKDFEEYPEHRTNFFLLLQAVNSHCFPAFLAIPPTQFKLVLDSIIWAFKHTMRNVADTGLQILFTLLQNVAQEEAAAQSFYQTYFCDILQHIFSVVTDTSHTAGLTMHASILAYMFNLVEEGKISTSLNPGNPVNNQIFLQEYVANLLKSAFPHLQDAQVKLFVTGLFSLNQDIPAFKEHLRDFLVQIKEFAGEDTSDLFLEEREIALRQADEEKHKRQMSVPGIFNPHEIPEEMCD

Saccharomyces cerevisiae = assay: Inhibition of NES binding to yeast CRM1-T539 mutant in absence of RanGTP at 20 uM by pull down assay
HCT-116 = assay: Anti-cancer activity against human HCT-116 cells assessed as cell survival at 10 uM for 72 hrs replaced with compound containing fresh culture medium every 12 hrs by Sulforhodamine B assay; format: functional, cell-based
HeLa [3] = assay: Anti-cancer activity against human HeLa cells assessed as cell survival at 10 uM for 72 hrs replaced with compound containing fresh culture medium every 12 hrs by Sulforhodamine B assay; format: functional, cell-based
Huh-7 = assay: Anti-cancer activity against human HuH-7 cells assessed as cell survival at 10 uM for 72 hrs replaced with compound containing fresh culture medium every 12 hrs by Sulforhodamine B assay; format: functional, cell-based
PANC-1 = assay: Anti-cancer activity against human PANC-1 cells assessed as cell survival at 10 uM for 72 hrs replaced with compound containing fresh culture medium every 12 hrs by Sulforhodamine B assay; format: functional, cell-based
HGC-27 = assay: Anti-cancer activity against human HGC-27 cells assessed as cell survival at 10 uM for 72 hrs replaced with compound containing fresh culture medium every 12 hrs by Sulforhodamine B assay; format: functional, cell-based
HeLa [4] = assay: Anti-cancer activity against human HeLa cells assessed as cell viability at 20 uM incubated for 2 hrs by EdU incorporation based assay; format: functional
[5] = target: Exportin-1 (Saccharomyces cerevisiae) (UniProt P30822); assay: Inhibition of GST-NES MVM binding to yeast CRM1 at 20 uM by pull down assay

Structure (SMILES): O=C(/C=C\n1cnc(-c2cc(C(F)(F)F)cc(C(F)(F)F)c2)n1)NNc1cnccn1
Activity (SW48): Active
inhibition (HeLa [1]): inactive
Activity (HeLa [2]): inactive
Activity (HepG2): Active
Activity (MGC-803): Active
Activity (A2780): Active
Activity (A549): Active
inhibition (Exportin-1): inactive
inhibition (Saccharomyces cerevisiae): inactive
Activity (HCT-116): Active
Activity (HeLa [3]): Active
Activity (Huh-7): Active
Activity (PANC-1): Active
Activity (HGC-27): Active

Structure (SMILES): CC(C)CCNc1cc(C[S+]([O-])c2cc(C(F)(F)F)cc(C(F)(F)F)c2)on1 (stereo not given)
Activity (HeLa [4]): inactive
inhibition [5]: inactive

Structure (SMILES): [O-][S+](/C=C/CBr)c1cc(C(F)(F)F)cc(C(F)(F)F)c1 (stereo not given)
inhibition (Saccharomyces cerevisiae): Active
Activity (HeLa [4]): inactive
inhibition [5]: Active

Continued, in another order:

inhibition [5]: inactive
Structure (SMILES): [O-][S+](Cc1ccnc(Cl)c1)c1cc(C(F)(F)F)cc(C(F)(F)F)c1 (stereo not given)
Activity (HeLa [4]): inactive

inhibition [5]: inactive
Structure (SMILES): CC(C)CCNc1cc(C[S+]([O-])c2cc(C(F)(F)F)cc(C(F)(F)F)c2)ccn1 (stereo not given)
Activity (HeLa [4]): inactive

inhibition [5]: inactive
Structure (SMILES): FC(F)(F)c1cc(SCc2ccnc(Cl)c2)cc(C(F)(F)F)c1
Activity (HeLa [4]): inactive
